Columns and labels:
[1] = molecular target: Glucocorticoid receptor (Homo sapiens) (UniProt P04150); assay: GR (h) Eurofins-Cerep binding assay; set-up: ligand concentration 1.5 nM; settings: filed as agonist, Compound concentration 10.0 uM
[2] = molecular target: TRAF2 and NCK-interacting protein kinase (Homo sapiens) (UniProt Q9UKE5); settings: Compound concentration 1000.0 nM
[3] = test system: Epidermal growth factor receptor (Homo sapiens), P00533 [L861Q]; settings: Compound concentration 1000.0 nM
[4] = molecular target: Serine/threonine-protein kinase TBK1 (Homo sapiens) (UniProt Q9UHD2); settings: Compound concentration 1000.0 nM
[5] = test system: Serine/threonine-protein kinase B-raf (Homo sapiens), P15056 [V600E]; settings: Compound concentration 1000.0 nM
[6] = molecular target: Ephrin type-A receptor 7 (Homo sapiens) (UniProt Q15375); settings: Compound concentration 1000.0 nM
[7] = molecular target: Ephrin type-A receptor 1 (Homo sapiens) (UniProt P21709); settings: Compound concentration 1000.0 nM
[8] = molecular target: Death-associated protein kinase 1 (Homo sapiens) (UniProt P53355); settings: Compound concentration 1000.0 nM
[9] = molecular target: Bone morphogenetic protein receptor type-1A (Homo sapiens) (UniProt P36894); settings: Compound concentration 1000.0 nM
[10] = molecular target: Tyrosine-protein kinase ABL1 (Homo sapiens) (UniProt P00519); settings: Compound concentration 1000.0 nM
[11] = molecular target: Serine/threonine-protein kinase D3 (Homo sapiens) (UniProt O94806); settings: Compound concentration 1000.0 nM
[12] = molecular target: Tyrosine-protein kinase Blk (Homo sapiens) (UniProt P51451); settings: Compound concentration 1000.0 nM
[13] = test system: Mast/stem cell growth factor receptor Kit (Homo sapiens), P10721 [L576P]; settings: Compound concentration 1000.0 nM
[14] = molecular target: Receptor-type tyrosine-protein kinase FLT3 (Homo sapiens) (UniProt P36888); settings: Compound concentration 1000.0 nM
[15] = molecular target: Beta-2 adrenergic receptor (Homo sapiens) (UniProt P07550); assay: Beta2 (h) Eurofins-Cerep binding assay; set-up: ligand concentration 0.3 nM; settings: filed as antagonist, Compound concentration 10.0 uM
[16] = molecular target: STE20-like serine/threonine-protein kinase (Homo sapiens) (UniProt Q9H2G2); settings: Compound concentration 1000.0 nM
[17] = molecular target: Ribosomal protein S6 kinase alpha-5 (Homo sapiens) (UniProt O75582); settings: Compound concentration 1000.0 nM
[18] = molecular target: Activin receptor type-1B (Homo sapiens) (UniProt P36896); settings: Compound concentration 1000.0 nM
[19] = test system: Phosphatidylinositol 4,5-bisphosphate 3-kinase catalytic subunit alpha isoform (Homo sapiens), P42336 [I800L]; settings: Compound concentration 1000.0 nM
[20] = molecular target: Mitogen-activated protein kinase 12 (Homo sapiens) (UniProt P53778); settings: Compound concentration 1000.0 nM
[21] = molecular target: Testis-specific serine/threonine-protein kinase 1 (Homo sapiens) (UniProt Q9BXA7); settings: Compound concentration 1000.0 nM
[22] = molecular target: Ephrin type-B receptor 2 (Homo sapiens) (UniProt P29323); settings: Compound concentration 1000.0 nM
[23] = molecular target: T1, 5-hydroxytryptamine receptor 3A (Homo sapiens) (UniProt P46098); assay: 5-HT3 (h) Eurofins-Cerep binding assay; set-up: ligand concentration 0.5 nM; settings: filed as antagonist, Compound concentration 10.0 uM
T1 sequence (whole entry): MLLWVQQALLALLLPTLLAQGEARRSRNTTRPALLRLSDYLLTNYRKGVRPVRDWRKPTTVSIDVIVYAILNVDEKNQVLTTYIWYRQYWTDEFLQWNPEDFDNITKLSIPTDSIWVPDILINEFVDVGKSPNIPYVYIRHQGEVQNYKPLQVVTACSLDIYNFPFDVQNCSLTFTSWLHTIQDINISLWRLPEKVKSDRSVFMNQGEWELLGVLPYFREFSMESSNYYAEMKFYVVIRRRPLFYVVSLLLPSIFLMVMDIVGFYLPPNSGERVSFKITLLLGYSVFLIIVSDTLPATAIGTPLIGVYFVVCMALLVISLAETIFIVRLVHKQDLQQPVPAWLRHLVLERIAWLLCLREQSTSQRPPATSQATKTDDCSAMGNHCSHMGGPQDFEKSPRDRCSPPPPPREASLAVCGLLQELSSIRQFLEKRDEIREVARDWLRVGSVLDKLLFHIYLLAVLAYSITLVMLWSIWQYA

[24] = molecular target: Tyrosine-protein kinase Srms (Homo sapiens) (UniProt Q9H3Y6); settings: Compound concentration 1000.0 nM
[25] = molecular target: Dual specificity protein kinase CLK1 (Homo sapiens) (UniProt P49759); settings: Compound concentration 1000.0 nM
[26] = molecular target: Activin receptor type-2B (Homo sapiens) (UniProt Q13705); settings: Compound concentration 1000.0 nM
[27] = molecular target: Myosin-IIIa (Homo sapiens) (UniProt Q8NEV4); settings: Compound concentration 1000.0 nM
[28] = molecular target: Phosphatidylinositol 5-phosphate 4-kinase type-2 gamma (Homo sapiens) (UniProt Q8TBX8); settings: Compound concentration 1000.0 nM
[29] = molecular target: Cyclin-dependent kinase 13 (Homo sapiens) (UniProt Q14004); settings: Compound concentration 1000.0 nM
[30] = molecular target: Adenosine receptor A3 (Homo sapiens) (UniProt P0DMS8); assay: A3 (h) Eurofins-Cerep binding assay; set-up: ligand concentration 0.15 nM; settings: filed as agonist, Compound concentration 10.0 uM
[31] = molecular target: Mitogen-activated protein kinase 8 (Homo sapiens) (UniProt P45983); settings: Compound concentration 1000.0 nM
[32] = molecular target: Tyrosine-protein kinase FRK (Homo sapiens) (UniProt P42685); settings: Compound concentration 1000.0 nM
[33] = molecular target: Serine/threonine-protein kinase 33 (Homo sapiens) (UniProt Q9BYT3); settings: Compound concentration 1000.0 nM
[34] = molecular target: 5-hydroxytryptamine receptor 1A (Homo sapiens) (UniProt P08908); assay: 5-HT1A (h) Eurofins-Cerep binding assay; set-up: ligand concentration 0.5 nM; settings: filed as agonist, Compound concentration 10.0 uM
[35] = molecular target: Atypical kinase COQ8B, mitochondrial (Homo sapiens) (UniProt Q96D53); settings: Compound concentration 1000.0 nM
[36] = molecular target: Serine/threonine-protein kinase PAK 5 (Homo sapiens) (UniProt Q9P286); settings: Compound concentration 1000.0 nM
[37] = test system: ALK tyrosine kinase receptor (Homo sapiens), Q9UM73 [C1156Y]; settings: Compound concentration 1000.0 nM
[38] = molecular target: G protein-coupled receptor kinase 3 (Homo sapiens) (UniProt P35626); settings: Compound concentration 1000.0 nM
[39] = molecular target: Phosphatidylinositol 4,5-bisphosphate 3-kinase catalytic subunit delta isoform (Homo sapiens) (UniProt O00329); settings: Compound concentration 1000.0 nM

Chain of Tyrosine-protein kinase ABL1 (Homo sapiens) (P00519 whole entry): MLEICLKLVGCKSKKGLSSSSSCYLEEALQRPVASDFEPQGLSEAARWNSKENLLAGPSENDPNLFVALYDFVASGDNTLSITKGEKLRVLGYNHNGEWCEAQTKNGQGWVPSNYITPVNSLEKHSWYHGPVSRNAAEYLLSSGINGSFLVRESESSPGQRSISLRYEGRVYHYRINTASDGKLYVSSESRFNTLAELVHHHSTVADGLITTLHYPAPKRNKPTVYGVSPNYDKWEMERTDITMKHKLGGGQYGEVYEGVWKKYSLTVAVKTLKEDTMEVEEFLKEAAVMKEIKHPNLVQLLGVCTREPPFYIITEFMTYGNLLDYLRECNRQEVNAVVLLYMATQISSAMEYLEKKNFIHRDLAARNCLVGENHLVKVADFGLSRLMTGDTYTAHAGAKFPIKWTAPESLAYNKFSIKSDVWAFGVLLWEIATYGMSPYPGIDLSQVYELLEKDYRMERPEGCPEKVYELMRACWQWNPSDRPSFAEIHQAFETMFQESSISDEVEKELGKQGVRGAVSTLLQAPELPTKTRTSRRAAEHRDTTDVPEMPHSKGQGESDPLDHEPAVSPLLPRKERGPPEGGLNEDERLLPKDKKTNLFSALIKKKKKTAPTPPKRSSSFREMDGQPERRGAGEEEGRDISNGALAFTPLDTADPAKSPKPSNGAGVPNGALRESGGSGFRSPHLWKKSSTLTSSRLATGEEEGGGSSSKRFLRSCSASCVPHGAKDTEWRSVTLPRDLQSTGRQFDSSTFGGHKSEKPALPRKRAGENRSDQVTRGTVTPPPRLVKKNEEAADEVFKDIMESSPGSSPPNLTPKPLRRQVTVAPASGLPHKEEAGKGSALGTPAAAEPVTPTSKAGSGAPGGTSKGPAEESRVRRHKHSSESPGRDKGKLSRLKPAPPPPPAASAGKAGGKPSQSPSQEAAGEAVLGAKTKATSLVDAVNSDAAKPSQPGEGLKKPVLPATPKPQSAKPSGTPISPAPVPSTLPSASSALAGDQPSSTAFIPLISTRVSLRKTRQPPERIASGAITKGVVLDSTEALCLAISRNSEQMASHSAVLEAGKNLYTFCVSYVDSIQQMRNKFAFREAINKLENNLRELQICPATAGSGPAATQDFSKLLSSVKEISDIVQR
Chain of Cyclin-dependent kinase 13 (Homo sapiens) (Q14004 whole entry, looked up): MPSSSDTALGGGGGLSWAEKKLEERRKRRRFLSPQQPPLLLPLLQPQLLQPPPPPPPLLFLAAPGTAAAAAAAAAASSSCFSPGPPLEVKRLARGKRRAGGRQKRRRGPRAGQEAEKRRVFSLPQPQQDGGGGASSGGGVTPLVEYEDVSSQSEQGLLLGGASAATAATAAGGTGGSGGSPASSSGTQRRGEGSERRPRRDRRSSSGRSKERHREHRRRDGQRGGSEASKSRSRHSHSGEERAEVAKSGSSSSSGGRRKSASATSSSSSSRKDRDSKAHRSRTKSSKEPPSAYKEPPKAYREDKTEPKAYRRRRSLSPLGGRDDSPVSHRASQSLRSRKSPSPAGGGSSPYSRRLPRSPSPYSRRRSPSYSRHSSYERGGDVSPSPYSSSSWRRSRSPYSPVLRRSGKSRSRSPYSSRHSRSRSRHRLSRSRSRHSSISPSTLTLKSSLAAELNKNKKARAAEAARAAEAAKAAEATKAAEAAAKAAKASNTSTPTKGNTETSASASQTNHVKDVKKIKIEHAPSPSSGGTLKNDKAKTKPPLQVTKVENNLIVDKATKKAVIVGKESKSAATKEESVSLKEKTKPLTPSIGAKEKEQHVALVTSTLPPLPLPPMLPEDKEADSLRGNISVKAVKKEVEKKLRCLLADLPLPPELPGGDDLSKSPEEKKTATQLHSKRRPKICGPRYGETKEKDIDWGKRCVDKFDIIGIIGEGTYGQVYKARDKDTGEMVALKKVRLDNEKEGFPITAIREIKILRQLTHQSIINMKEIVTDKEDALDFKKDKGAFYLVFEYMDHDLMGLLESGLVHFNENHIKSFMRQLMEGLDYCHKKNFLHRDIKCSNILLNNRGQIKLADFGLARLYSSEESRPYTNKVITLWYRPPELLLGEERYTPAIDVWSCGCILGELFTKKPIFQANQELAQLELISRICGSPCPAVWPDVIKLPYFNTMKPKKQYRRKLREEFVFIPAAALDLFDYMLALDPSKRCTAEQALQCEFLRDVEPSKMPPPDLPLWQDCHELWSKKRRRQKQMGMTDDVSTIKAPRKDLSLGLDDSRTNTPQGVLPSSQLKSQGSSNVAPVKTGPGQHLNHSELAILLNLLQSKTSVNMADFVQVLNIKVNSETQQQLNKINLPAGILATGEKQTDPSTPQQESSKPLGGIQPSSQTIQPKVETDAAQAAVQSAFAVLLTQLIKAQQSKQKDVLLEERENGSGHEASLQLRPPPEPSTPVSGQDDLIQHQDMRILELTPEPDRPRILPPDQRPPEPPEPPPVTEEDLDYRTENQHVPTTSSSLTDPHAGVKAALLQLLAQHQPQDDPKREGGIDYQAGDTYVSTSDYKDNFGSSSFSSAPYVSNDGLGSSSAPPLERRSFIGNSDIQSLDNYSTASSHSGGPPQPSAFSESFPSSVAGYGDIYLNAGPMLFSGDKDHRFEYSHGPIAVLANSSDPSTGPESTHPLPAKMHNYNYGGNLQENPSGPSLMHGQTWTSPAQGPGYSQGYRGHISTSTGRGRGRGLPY
Chain of Atypical kinase COQ8B, mitochondrial (Homo sapiens) (Q96D53 whole entry): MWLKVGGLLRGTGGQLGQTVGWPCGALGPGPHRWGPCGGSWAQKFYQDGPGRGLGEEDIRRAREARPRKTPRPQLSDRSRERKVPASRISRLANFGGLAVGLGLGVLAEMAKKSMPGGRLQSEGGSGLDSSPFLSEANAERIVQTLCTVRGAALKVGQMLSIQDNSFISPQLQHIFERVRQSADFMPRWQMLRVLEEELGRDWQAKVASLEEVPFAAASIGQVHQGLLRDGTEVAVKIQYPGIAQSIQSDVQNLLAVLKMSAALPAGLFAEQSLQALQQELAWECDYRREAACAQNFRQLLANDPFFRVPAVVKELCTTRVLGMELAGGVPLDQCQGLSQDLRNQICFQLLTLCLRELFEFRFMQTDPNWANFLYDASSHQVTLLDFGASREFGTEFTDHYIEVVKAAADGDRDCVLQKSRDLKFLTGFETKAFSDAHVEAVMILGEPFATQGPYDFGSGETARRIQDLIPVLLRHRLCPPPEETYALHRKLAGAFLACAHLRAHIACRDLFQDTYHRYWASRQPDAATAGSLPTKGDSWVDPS
Chain of Mitogen-activated protein kinase 8 (Homo sapiens) (P45983 whole entry): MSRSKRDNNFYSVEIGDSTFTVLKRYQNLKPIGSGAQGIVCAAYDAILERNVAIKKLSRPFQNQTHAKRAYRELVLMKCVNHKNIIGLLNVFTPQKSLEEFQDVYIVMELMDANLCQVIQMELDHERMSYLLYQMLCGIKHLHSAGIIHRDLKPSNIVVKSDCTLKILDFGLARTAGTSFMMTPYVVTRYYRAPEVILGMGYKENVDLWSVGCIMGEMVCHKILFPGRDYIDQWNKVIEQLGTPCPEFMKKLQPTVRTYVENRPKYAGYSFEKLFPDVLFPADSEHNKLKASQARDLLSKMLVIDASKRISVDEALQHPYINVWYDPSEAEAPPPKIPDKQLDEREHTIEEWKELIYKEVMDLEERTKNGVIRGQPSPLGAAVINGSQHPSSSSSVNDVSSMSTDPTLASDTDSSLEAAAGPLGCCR
Chain of Bone morphogenetic protein receptor type-1A (Homo sapiens) (P36894 whole entry): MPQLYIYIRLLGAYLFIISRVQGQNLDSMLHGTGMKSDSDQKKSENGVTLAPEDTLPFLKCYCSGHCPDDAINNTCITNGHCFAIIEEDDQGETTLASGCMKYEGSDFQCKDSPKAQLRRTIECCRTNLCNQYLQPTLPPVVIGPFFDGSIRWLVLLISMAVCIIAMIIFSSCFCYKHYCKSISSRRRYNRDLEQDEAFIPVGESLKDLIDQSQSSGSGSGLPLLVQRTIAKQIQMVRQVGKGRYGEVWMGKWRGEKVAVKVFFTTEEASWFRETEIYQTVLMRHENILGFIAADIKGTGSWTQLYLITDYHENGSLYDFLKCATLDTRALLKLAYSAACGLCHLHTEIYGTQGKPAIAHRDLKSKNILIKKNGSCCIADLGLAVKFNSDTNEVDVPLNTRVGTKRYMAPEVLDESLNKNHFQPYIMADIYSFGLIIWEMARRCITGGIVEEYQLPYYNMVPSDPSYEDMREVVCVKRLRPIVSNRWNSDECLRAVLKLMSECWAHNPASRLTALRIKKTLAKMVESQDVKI
Chain of 5-hydroxytryptamine receptor 1A (Homo sapiens) (P08908 whole entry): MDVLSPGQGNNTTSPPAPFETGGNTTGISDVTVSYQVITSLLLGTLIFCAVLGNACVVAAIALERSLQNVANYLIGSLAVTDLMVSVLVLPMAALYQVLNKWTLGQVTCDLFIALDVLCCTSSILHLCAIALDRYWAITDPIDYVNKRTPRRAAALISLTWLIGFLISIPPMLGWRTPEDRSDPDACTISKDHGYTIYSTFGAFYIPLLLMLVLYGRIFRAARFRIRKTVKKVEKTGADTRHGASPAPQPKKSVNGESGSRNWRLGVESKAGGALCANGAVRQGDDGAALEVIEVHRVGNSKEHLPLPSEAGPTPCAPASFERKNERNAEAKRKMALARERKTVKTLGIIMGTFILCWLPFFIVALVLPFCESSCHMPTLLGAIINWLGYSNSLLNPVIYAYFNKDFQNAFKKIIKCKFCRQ
Chain of Activin receptor type-1B (Homo sapiens) (P36896 whole entry, canonical isoform): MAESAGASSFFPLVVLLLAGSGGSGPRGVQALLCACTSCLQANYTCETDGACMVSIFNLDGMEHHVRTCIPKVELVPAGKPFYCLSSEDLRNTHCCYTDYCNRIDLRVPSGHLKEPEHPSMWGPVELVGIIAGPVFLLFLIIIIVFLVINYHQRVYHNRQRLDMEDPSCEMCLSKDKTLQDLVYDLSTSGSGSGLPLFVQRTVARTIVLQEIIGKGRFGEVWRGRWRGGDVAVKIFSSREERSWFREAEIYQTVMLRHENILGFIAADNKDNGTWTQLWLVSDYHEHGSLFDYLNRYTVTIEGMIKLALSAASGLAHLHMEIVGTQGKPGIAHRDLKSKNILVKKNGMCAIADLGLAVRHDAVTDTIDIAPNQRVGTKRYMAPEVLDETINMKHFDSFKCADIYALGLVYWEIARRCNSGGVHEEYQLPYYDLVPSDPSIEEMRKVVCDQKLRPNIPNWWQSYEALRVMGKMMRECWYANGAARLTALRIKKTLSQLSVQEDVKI

With CCCOc1ccc([C@H]2[C@H](C(=O)O)[C@@H](c3ccc4c(c3)OCO4)CN2CC(=O)Nc2c(CC)cccc2CC)cc1 [A-192621] as the compound, how does the % Inhibition of Control Specific Binding (Mean n=2) [1] read?
The % Inhibition of Control Specific Binding (Mean n=2) was 7%.

And the residual activity [2]?
The residual activity was 88%.

What about the residual activity [3] of the same compound?
The residual activity was 100%.

And the residual activity [4]?
The residual activity was 91%.

What about the residual activity [5] of the same compound?
Its residual activity is 76%.

What about the residual activity [6] of the same compound?
The residual activity was 98%.

What about the residual activity [7] of the same compound?
The residual activity was 86%.

What about the residual activity [8] of the same compound?
Its residual activity is 90%.

What about the residual activity [9] of the same compound?
The residual activity was 100%.

What about the residual activity [10] of the same compound?
Its residual activity is 73%.

What about the residual activity [11] of the same compound?
The residual activity was 93%.

And the residual activity [12]?
The residual activity was 88%.

What about the residual activity [13] of the same compound?
Its residual activity is 90%.

And the residual activity [14]?
Its residual activity is 87%.

What about the % Inhibition of Control Specific Binding (Mean n=2) [15] of the same compound?
Its % Inhibition of Control Specific Binding (Mean n=2) is -0.2%.

What about the residual activity [16] of the same compound?
Its residual activity is 100%.

And the residual activity [17]?
Its residual activity is 98%.

What about the residual activity [18] of the same compound?
Its residual activity is 99%.

What about the residual activity [19] of the same compound?
The residual activity was 81%.

And the residual activity [20]?
The residual activity was 73%.

What about the residual activity [21] of the same compound?
Its residual activity is 92%.

And the residual activity [22]?
Its residual activity is 100%.

What about the % Inhibition of Control Specific Binding (Mean n=2) [23] of the same compound?
Its % Inhibition of Control Specific Binding (Mean n=2) is -10.7%.

And the residual activity [24]?
Its residual activity is 63%.

What about the residual activity [25] of the same compound?
The residual activity was 87%.

What about the residual activity [26] of the same compound?
The residual activity was 93%.

And the residual activity [27]?
Its residual activity is 100%.

And the residual activity [28]?
The residual activity was 49%.

What about the residual activity [29] of the same compound?
The residual activity was 45%.

What about the % Inhibition of Control Specific Binding (Mean n=2) [30] of the same compound?
Its % Inhibition of Control Specific Binding (Mean n=2) is 47.4%.

And the residual activity [31]?
Its residual activity is 70%.

What about the residual activity [32] of the same compound?
The residual activity was 100%.

And the residual activity [33]?
The residual activity was 65%.

What about the % Inhibition of Control Specific Binding (Mean n=2) [34] of the same compound?
Its % Inhibition of Control Specific Binding (Mean n=2) is -5.9%.

What about the residual activity [35] of the same compound?
Its residual activity is 90%.

What about the residual activity [36] of the same compound?
The residual activity was 73%.

And the residual activity [37]?
The residual activity was 98%.

And the residual activity [38]?
Its residual activity is 73%.

What about the residual activity [39] of the same compound?
The residual activity was 75%.

With CCCOc1ccc([C@@H]2[C@@H](C(=O)O)[C@H](c3ccc4c(c3)OCO4)CN2CC(=O)Nc2c(CC)cccc2CC)cc1 [A-1806262] as the compound, how does the % Inhibition of Control Specific Binding (Mean n=2) [1] read?
Its % Inhibition of Control Specific Binding (Mean n=2) is 4.1%.

And the residual activity [2]?
Its residual activity is 100%.

What about the residual activity [3] of the same compound?
The residual activity was 100%.

And the residual activity [4]?
Its residual activity is 100%.

What about the residual activity [5] of the same compound?
Its residual activity is 98%.

What about the residual activity [6] of the same compound?
Its residual activity is 92%.

What about the residual activity [7] of the same compound?
The residual activity was 100%.

What about the residual activity [8] of the same compound?
Its residual activity is 83%.

And the residual activity [9]?
The residual activity was 89%.

And the residual activity [10]?
Its residual activity is 80%.

What about the residual activity [11] of the same compound?
Its residual activity is 86%.

What about the residual activity [12] of the same compound?
Its residual activity is 96%.

What about the residual activity [13] of the same compound?
The residual activity was 100%.

And the residual activity [14]?
The residual activity was 100%.

What about the % Inhibition of Control Specific Binding (Mean n=2) [15] of the same compound?
Its % Inhibition of Control Specific Binding (Mean n=2) is 3.6%.

What about the residual activity [16] of the same compound?
The residual activity was 100%.

And the residual activity [17]?
The residual activity was 99%.

What about the residual activity [18] of the same compound?
Its residual activity is 90%.

What about the residual activity [19] of the same compound?
The residual activity was 71%.

What about the residual activity [20] of the same compound?
The residual activity was 100%.

What about the residual activity [21] of the same compound?
The residual activity was 100%.

What about the residual activity [22] of the same compound?
The residual activity was 100%.

What about the % Inhibition of Control Specific Binding (Mean n=2) [23] of the same compound?
Its % Inhibition of Control Specific Binding (Mean n=2) is -7.1%.

And the residual activity [24]?
The residual activity was 90%.

And the residual activity [25]?
Its residual activity is 93%.

What about the residual activity [26] of the same compound?
The residual activity was 96%.

What about the residual activity [27] of the same compound?
Its residual activity is 100%.

And the residual activity [28]?
The residual activity was 94%.

What about the residual activity [29] of the same compound?
Its residual activity is 81%.

And the % Inhibition of Control Specific Binding (Mean n=2) [30]?
The % Inhibition of Control Specific Binding (Mean n=2) was 37.6%.

What about the residual activity [31] of the same compound?
The residual activity was 87%.

And the residual activity [32]?
Its residual activity is 89%.

What about the residual activity [33] of the same compound?
The residual activity was 69%.

What about the % Inhibition of Control Specific Binding (Mean n=2) [34] of the same compound?
Its % Inhibition of Control Specific Binding (Mean n=2) is -3.8%.

What about the residual activity [35] of the same compound?
The residual activity was 89%.

What about the residual activity [36] of the same compound?
The residual activity was 88%.

And the residual activity [37]?
The residual activity was 79%.

And the residual activity [38]?
The residual activity was 100%.

What about the residual activity [39] of the same compound?
The residual activity was 90%.
